Test results as given in US11453647B2, “Benzimidazole derivatives as adenosine receptor antagonists” (Merck Patent GmbH, priority 2017, dated 2022).

Assays:
Assay type in all cases: cell-based
human A3 receptor = target: T1, human A3 receptor (Homo sapiens, UniProt P0DMS8); assay: functional cAMP (HTRF) assay, recombinant CHO cells expressing human A3 receptor, forskolin, agonist IB-MECA
T1 construct: expressed in transfected cells; host or cells: CHO
T1 sequence (P0DMS8 1-318): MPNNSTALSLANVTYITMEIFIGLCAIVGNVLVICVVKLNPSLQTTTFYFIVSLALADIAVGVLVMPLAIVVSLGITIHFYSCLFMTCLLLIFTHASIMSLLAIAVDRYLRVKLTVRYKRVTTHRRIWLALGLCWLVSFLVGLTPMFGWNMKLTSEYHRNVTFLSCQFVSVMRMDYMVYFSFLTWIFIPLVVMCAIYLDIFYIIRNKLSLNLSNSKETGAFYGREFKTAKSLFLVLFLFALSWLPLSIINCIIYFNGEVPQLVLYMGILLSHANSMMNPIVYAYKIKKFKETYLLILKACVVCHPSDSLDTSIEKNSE
Protocol: (§1) The functional activities of human A2A, A2B, A1 and A3 receptors were determined by quantification of cAMP, being the second messenger for adenosine receptors.
(§2) For human A1 and A3 receptors, recombinant CHO cells, expressing either A1 or A3-receptor, were used. As both receptors couple to Gi proteins, the assay protocol was adapted:
(§3) Cells were seeded into 384-well plates, forskolin, test compounds and agonists (CPA for A1- and IB-MECA for A3-receptor) were added. After 30 min incubation, HTRF reagents (cAMP dynamic 2, Cis Bio) were added and the cellular cAMP levels were determined using the ENVISION (Perkin Elmer) plate reader. Obtained raw data were normalized against the inhibitor control and the neural control (DMSO) and the normalized data were fitted using GeneData software.

A2B receptors = target: T2, A2B receptors (Homo sapiens, UniProt P29275); assay: functional cAMP (HTRF) assay, recombinant HEK293 cells expressing human A2B receptor, agonist NECA; set-up: expressed in transfected cells; host or cells: HEK293
T2 sequence (P29275 1-332): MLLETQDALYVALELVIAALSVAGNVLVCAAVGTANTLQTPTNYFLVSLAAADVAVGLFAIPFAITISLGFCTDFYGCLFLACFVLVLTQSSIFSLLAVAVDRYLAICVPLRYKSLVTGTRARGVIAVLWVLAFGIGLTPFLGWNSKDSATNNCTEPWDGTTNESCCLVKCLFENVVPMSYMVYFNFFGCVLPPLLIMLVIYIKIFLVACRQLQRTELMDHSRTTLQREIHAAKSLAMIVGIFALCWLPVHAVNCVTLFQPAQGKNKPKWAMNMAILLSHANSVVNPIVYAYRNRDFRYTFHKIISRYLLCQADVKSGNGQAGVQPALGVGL

human A2A receptor = target: T3, human A2A receptor (Homo sapiens, UniProt P29274); assay: functional cAMP (HTRF) assay, recombinant HEK293 cells expressing human A2A receptor, agonist NECA
T3 construct: expressed in transfected cells; host or cells: HEK293

human A1 receptor = target: T4, human A1 receptor (Homo sapiens, UniProt P30542); assay: functional cAMP (HTRF) assay, recombinant CHO cells expressing human A1 receptor, forskolin, agonist CPA
T4 construct: expressed in transfected cells; host or cells: CHO
T4 sequence (P30542 1-326): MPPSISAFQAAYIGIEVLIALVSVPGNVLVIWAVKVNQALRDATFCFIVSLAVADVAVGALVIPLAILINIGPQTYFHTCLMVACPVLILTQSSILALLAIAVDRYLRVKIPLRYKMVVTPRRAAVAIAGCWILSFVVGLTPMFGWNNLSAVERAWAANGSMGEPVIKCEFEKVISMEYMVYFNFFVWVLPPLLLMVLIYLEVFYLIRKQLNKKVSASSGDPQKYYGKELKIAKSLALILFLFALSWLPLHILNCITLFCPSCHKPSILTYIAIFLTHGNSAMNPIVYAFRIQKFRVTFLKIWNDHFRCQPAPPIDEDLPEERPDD
Protocol: as §1, §2, §3

T3 sequence (P29274 whole entry): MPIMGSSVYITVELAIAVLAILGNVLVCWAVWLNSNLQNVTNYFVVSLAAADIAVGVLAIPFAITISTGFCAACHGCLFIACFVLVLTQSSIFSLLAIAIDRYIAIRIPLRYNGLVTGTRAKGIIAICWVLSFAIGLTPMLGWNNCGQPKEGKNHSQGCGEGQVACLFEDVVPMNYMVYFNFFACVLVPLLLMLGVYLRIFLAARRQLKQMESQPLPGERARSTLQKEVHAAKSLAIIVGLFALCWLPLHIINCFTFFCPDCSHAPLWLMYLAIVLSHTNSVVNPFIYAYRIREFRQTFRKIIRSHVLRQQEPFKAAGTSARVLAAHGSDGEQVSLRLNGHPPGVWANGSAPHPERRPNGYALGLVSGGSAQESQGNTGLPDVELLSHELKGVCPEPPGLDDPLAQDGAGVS

| Compound | IC50 (human A3 receptor) | IC50 (A2B receptors) | IC50 (human A2A receptor) | IC50 (human A1 receptor) |
| --- | --- | --- | --- | --- |
| COc1ccc(-c2cnn(C3CCN(C(=O)OC(C)(C)C)CC3)c2)c2[nH]c(NC(=O)N3CCC(C)(O)CC3)nc12 [compound 145, tert-butyl 4-(4-{2-[(4-hydroxy-4-methylpiperidine-1-carbonyl)amino]-4-methoxy-1H-1,3-benzodiazol-7-yl}-1H-pyrazol-1-yl)piperidine-1-carboxylate] | > 1000 nM | > 1000 nM | < 10 nM | > 1000 nM |
| COc1ccc(C2CCOCC2)c2nc(NC(=O)c3ccc(CN(C)C)cc3)[nH]c12 [compound 88, 4-[(dimethylamino)methyl]-N-[7-methoxy-4-(oxan-4-yl)-1H-1,3-benzodiazol-2-yl]benzamide] | > 1000 nM | > 1000 nM | < 10 nM | > 1000 nM |
| COc1ccc(C2CCOCC2)c2nc(NC(=O)c3cnc(C)o3)[nH]c12 [compound 234, N-[7-methoxy-4-(oxan-4-yl)-1H-1,3-benzodiazol-2-yl]-2-methyl-1,3-oxazole-5-carboxamide] | < 1000 nM |  | < 10 nM | > 1000 nM |
| COc1ccc(-c2ccc3c(cnn3C)c2)c2nc(NC(=O)N3CCC(C)(O)CC3)[nH]c12 [compound 273, 4-hydroxy-N-[7-methoxy-4-(1-methyl-1H-indazol-5-yl)-1H-1,3-benzodiazol-2-yl]-4-methylpiperidine-1-carboxamide] | > 1000 nM |  | < 100 nM | > 1000 nM |
| COc1ccc(C2CCOCC2)c2nc(NC(=O)C3(C#N)CC3)[nH]c12 [compound 226, 1-cyano-N-[7-methoxy-4-(oxan-4-yl)-1H-1,3-benzodiazol-2-yl]cyclopropane-1-carboxamide] | > 1000 nM |  | < 100 nM | > 1000 nM |
| COc1ccc(-c2cnn(-c3ccccn3)c2)c2[nH]c(NC(=O)N3CCC(C)(O)CC3)nc12 [compound 231, 4-hydroxy-N-{4-methoxy-7-[1-(pyridin-2-yl)-1H-pyrazol-4-yl]-1H-1,3-benzodiazol-2-yl}-4-methylpiperidine-1-carboxamide] | < 1000 nM |  | < 100 nM | < 1000 nM |
| COc1ccc(-c2cnn(C3CCOC3)c2)c2nc(NC(=O)N3CCC(C)(O)CC3)[nH]c12 (centres unmarked) [compound 241, 4-hydroxy-N-{4-methoxy-7-[1-(oxolan-3-yl)-1H-pyrazol-4-yl]-1H-1,3-benzodiazol-2-yl}-4-methylpiperidine-1-carboxamide] | > 1000 nM |  | < 100 nM | > 1000 nM |
| COc1ccc(-c2ccnc3[nH]ccc23)c2[nH]c(NC(=O)N3CCC(C)(O)CC3)nc12 [compound 270, 4-hydroxy-N-(7-methoxy-4-{1H-pyrrolo[2,3-b]pyridin-4-yl}-1H-1,3-benzodiazol-2-yl)-4-methylpiperidine-1-carboxamide] | > 1000 nM |  | < 100 nM | > 1000 nM |
| COc1ccc(-c2cnn(C(F)F)c2)c2nc(NC(=O)N3CCC(C)(O)CC3)[nH]c12 [compound 229, N-{7-[1-(difluoromethyl)-1H-pyrazol-4-yl]-4-methoxy-1H-1,3-benzodiazol-2-yl}-4-hydroxy-4-methylpiperidine-1-carboxamide] | > 1000 nM |  | < 100 nM | > 1000 nM |
| COc1ccc(-c2ccccc2F)c2nc(NC(=O)c3cnn(C)c3)[nH]c12 [compound 243, N-[4-(2-fluorophenyl)-7-methoxy-1H-1,3-benzodiazol-2-yl]-1-methyl-1H-pyrazole-4-carboxamide] |  | < 10 nM | < 10 nM | < 1000 nM |
| COc1ccc(-c2ccccc2)c2nc(NC(=O)c3cnc4n3CCCC4)[nH]c12 [compound 291, N-(7-methoxy-4-phenyl-1H-1,3-benzodiazol-2-yl)-5H,6H,7H,8H-imidazo[1,2-a]pyridine-3-carboxamide] |  | < 100 nM | < 100 nM | < 1000 nM |

Next, values leading:

| IC50 (human A3 receptor) | IC50 (A2B receptors) | IC50 (human A2A receptor) | IC50 (human A1 receptor) | Compound |
| --- | --- | --- | --- | --- |
| < 100 nM | < 1000 nM | < 10 nM | > 1000 nM | COc1ccc(N2CCOCC2)c2nc(NC(=O)c3ccc(F)cc3)[nH]c12 [compound 63, 4-fluoro-N-[7-methoxy-4-(morpholin-4-yl)-1H-1,3-benzodiazol-2-yl]benzamide] |
| < 10 nM | < 1000 nM | < 10 nM | < 1000 nM | COc1ccc(-c2cnn(C)c2)c2nc(NC(=O)c3cnc(C)s3)[nH]c12 [compound 165, N-[7-methoxy-4-(1-methyl-1H-pyrazol-4-yl)-1H-1,3-benzodiazol-2-yl]-2-methyl-1,3-thiazole-5-carboxamide] |
| > 1000 nM | < 100 nM | < 10 nM | < 1000 nM | COc1ccc(-c2ccccc2F)c2nc(NC(=O)N3CCC(C)(O)CC3)[nH]c12 [compound 218, N-[4-(2-fluorophenyl)-7-methoxy-1H-1,3-benzodiazol-2-yl]-4-hydroxy-4-methylpiperidine-1-carboxamide] |
| < 1000 nM |  | < 100 nM | > 1000 nM | CCCC1(c2ccc(OC)c3[nH]c(NC(=O)c4cnn(C)c4)nc23)CC1 [compound 232, N-[7-methoxy-4-(1-propylcyclopropyl)-1H-1,3-benzodiazol-2-yl]-1-methyl-1H-pyrazole-4-carboxamide] |
| > 1000 nM |  | < 100 nM | < 10 nM | COc1ccc(-c2cccc3c2CCN3)c2nc(NC(=O)N3CCC(C)(O)CC3)[nH]c12 [compound 292, N-[4-(2,3-dihydro-1H-indol-4-yl)-7-methoxy-1H-1,3-benzodiazol-2-yl]-4-hydroxy-4-methylpiperidine-1-carboxamide] |
| > 1000 nM |  | < 100 nM | > 1000 nM | COc1ccc(N2CCCCCC2)c2nc(NC(=O)N3CCC(C)(O)CC3)[nH]c12 [compound 216, N-[4-(azepan-1-yl)-7-methoxy-1H-1,3-benzodiazol-2-yl]-4-hydroxy-4-methylpiperidine-1-carboxamide] |
| > 1000 nM |  | < 100 nM | > 1000 nM | COCCOCCn1cc(-c2ccc(OC)c3nc(NC(=O)N4CCC(C)(O)CC4)[nH]c23)cn1 [compound 230, 4-hydroxy-N-(4-methoxy-7-{1-[2-(2-methoxyethoxy)ethyl]-1H-pyrazol-4-yl}-1H-1,3-benzodiazol-2-yl)-4-methylpiperidine-1-carboxamide] |
| < 10 nM |  | < 100 nM | > 1000 nM | CCCC(CC)c1ccc(OC)c2[nH]c(NC(=O)c3cnn(C)c3)nc12 (centres unmarked) [compound 233, N-[4-(hexan-3-yl)-7-methoxy-1H-1,3-benzodiazol-2-yl]-1-methyl-1H-pyrazole-4-carboxamide] |
| > 1000 nM |  | < 100 nM | > 1000 nM | COc1ccc(-c2cnn(C3CN(C(=O)OC(C)(C)C)C3)c2)c2[nH]c(NC(=O)N3CCC(C)(O)CC3)nc12 [compound 245, tert-butyl 3-(4-{2-[(4-hydroxy-4-methylpiperidine-1-carbonyl)amino]-4-methoxy-1H-1,3-benzodiazol-7-yl}-1H-pyrazol-1-yl)azetidine-1-carboxylate] |
|  | < 100 nM | < 100 nM | > 1000 nM | COc1ccc(-c2ccc3cc[nH]c3c2)c2nc(NC(=O)N3CCC(C)(O)CC3)[nH]c12 [compound 272, 4-hydroxy-N-[4-(1H-indol-6-yl)-7-methoxy-1H-1,3-benzodiazol-2-yl]-4-methylpiperidine-1-carboxamide] |
|  | < 100 nM | < 10 nM | > 1000 nM | COc1ccc(C2CCOCC2)c2nc(NC(=O)c3cnc(C)s3)[nH]c12 [compound 227, N-[7-methoxy-4-(oxan-4-yl)-1H-1,3-benzodiazol-2-yl]-2-methyl-1,3-thiazole-5-carboxamide] |
